Assay results as given in the NIST ThermoML archive (doi:10.1016/j.tca.2016.05.011).
Numbers after ± are expanded uncertainties.

Experiment: Boiling temperature at pressure P
Conditions: Liquid, DSC

| SMILES | Boiling temperature at pressure P (9.9 kPa) [°C] | Boiling temperature at pressure P (19.82 kPa) [°C] | Boiling temperature at pressure P (29.75 kPa) [°C] | Boiling temperature at pressure P (49.63 kPa) [°C] | Boiling temperature at pressure P (64.61 kPa) [°C] | Boiling temperature at pressure P (29.65 kPa) [°C] | Boiling temperature at pressure P (49.44 kPa) [°C] | Boiling temperature at pressure P (69.2 kPa) [°C] | Boiling temperature at pressure P (101.6 kPa) [°C] | Boiling temperature at pressure P (247.5 kPa) [°C] |
| --- | --- | --- | --- | --- | --- | --- | --- | --- | --- | --- |
| CC(C)(C)c1ccccc1O [2-tert-butyl-1-hydroxybenzene] | 145.4 ± 1.6 | 165.5 ± 2.6 | 178.6 ± 2.3 | 196.2 ± 3.1 | 206.1 ± 3.3 |  |  |  |  |  |
| Cc1ccccc1 [toluene] |  |  |  |  |  | 72.4 ± 1.8 | 87.5 ± 2.5 | 98.0 ± 2.4 | 111.2 ± 3.2 | 145.5 ± 4.5 |
